Data published in PubChem BioAssay AID1845213 (Molecular Pharmacology Branch, DTP, NCI, 2023).
Activity calls are given as the source filed them. Rule for the calls: active = viability on the fitted dose curve at most 10% of control; inactive = the rest.

System: NCI-H841 complex tumor spheroid viability
Test: Anticancer human tumor NCI-H841 cell line growth inhibition;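 for IC50: spheroids exposed to compounds for 7 days before readout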;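 for viability, T/C: spheroids exposed to compounds for 7 days before readout; 100% = DMSO vehicle control wells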
Conditions: for IC50: curve of first compound; for viability, T/C: stronger effect = lower value
How it was run: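 Complex spheroids of malignant cells with endothelial cells and mesenchymal stem cells; agents alone or combined, from near clinical Cmax (or 10 microM if unknown) down in half-log steps, 0.25% DMSO final.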

CC(C)n1c(=O)n(C)c2cnc3cc(F)c(-c4ccc(OCCCN5CCCCC5)nc4)cc3c21 + Cn1nnc2c(C(N)=O)ncn2c1=O
IC50 (second compound 1 µM): > 10 µM | IC50 (second compound 3.16 µM): > 10 µM | IC50 (second compound 10 µM): > 10 µM | IC50 (second compound 31.6 µM): 8.52 µM | IC50 (second compound 100 µM): 3.91 µM | viability, T/C (second compound 1 µM, first compound 0.0316 µM): 91.3% | viability, T/C (second compound 1 µM, first compound 0.1 µM): 93.5% | viability, T/C (second compound 1 µM, first compound 0.316 µM): 95.3% | viability, T/C (second compound 1 µM, first compound 1 µM): 92.3% | viability, T/C (second compound 1 µM, first compound 3.16 µM): 85.8% | viability, T/C (second compound 1 µM, first compound 10 µM): 57.5% | viability, T/C (second compound 3.16 µM, first compound 0.0316 µM): 94.5% | viability, T/C (second compound 3.16 µM, first compound 0.1 µM): 96.1% | viability, T/C (second compound 3.16 µM, first compound 0.316 µM): 99.9% | viability, T/C (second compound 3.16 µM, first compound 1 µM): 90.5% | viability, T/C (second compound 3.16 µM, first compound 3.16 µM): 89.3% | viability, T/C (second compound 3.16 µM, first compound 10 µM): 77.4% | viability, T/C (second compound 10 µM, first compound 0.0316 µM): 93.1% | viability, T/C (second compound 10 µM, first compound 0.1 µM): 94.1% | viability, T/C (second compound 10 µM, first compound 0.316 µM): 94.8% | outcome (second compound 10 µM, first compound 1 µM): inactive | viability, T/C (second compound 10 µM, first compound 3.16 µM): 88% | viability, T/C (second compound 10 µM, first compound 10 µM): 62.4% | viability, T/C (second compound 31.6 µM, first compound 0.0316 µM): 91% | viability, T/C (second compound 31.6 µM, first compound 0.1 µM): 92.2% | viability, T/C (second compound 31.6 µM, first compound 0.316 µM): 87.9% | viability, T/C (second compound 31.6 µM, first compound 1 µM): 88.4% | viability, T/C (second compound 31.6 µM, first compound 3.16 µM): 76.2% | viability, T/C (second compound 31.6 µM, first compound 10 µM): 45.8% | viability, T/C (second compound 100 µM, first compound 0.0316 µM): 84.4% | viability, T/C (second compound 100 µM, first compound 0.1 µM): 82.8% | viability, T/C (second compound 100 µM, first compound 0.316 µM): 77.9% | viability, T/C (second compound 100 µM, first compound 1 µM): 75.9% | viability, T/C (second compound 100 µM, first compound 3.16 µM): 52.9% | viability, T/C (second compound 100 µM, first compound 10 µM): 35.5%
